Laboratory results published in patent US6808876B1, “Cellular regulators of infectious agents and methods of use” (Immusol, Inc., priority 2000, dated 2004).

What was measured:
[1] = molecular target: Herpes simplex virus thymidine kinase (HSV-tk) (Human herpesvirus 1, UniProt P0DTH5); settings: cited from earlier work
HCV Core protein = settings: for core protein expression, reduced to % of control RzBR1 transduced cells: GCV-resistant cells, remaining level relative to control RzBR1
Method: Upon construction of the retroviral vector pLHPM a cassette translating the HCV Core protein via the HCV IRES was placed into the 3′ part of the LTR transcript. Thereby, cells transduced with the library or single Rz candidates could be analyzed for the HCV Core protein expression by Western blotting. Western blotting was performed on protein lysates using an enhanced chemiluminescent blotting detection kit (Novex), and anti-HCV core monoclonal antibody (6C7 provided by Harry Greenberg, Stanford University). Blots were exposed to film and band intensities measured using a phosphoimager and ImageQuant software. […] Band volumes of HCV Core protein in Western blotting were analyzed by densitometry, normalized towards beta-actin and expressed as percentage relative to the control (RzBR1).

HCV IRES = test: Ratio of Core protein to RNA transcript as indicator of HCV IRES translational activity; assay type: cell-based, Hepatitis C virus; settings: GCV resistant colonies, compared with control Rz BR1
Text: However, to eliminate differences in expression of the retroviral transcript (harboring the 5′ UTR Core transcript) between different Rz vector transduced cells, we used the ratio between expressed Core protein and RNA transcript levels as an indicator of HCV IRES translational activity.

untransfected HeLa cells = test: GCV application to untransfected HeLa cells or cells expressing Core protein in place of tk; assay type: cell-based; settings: GCV 10-100 uM
Method: Translation of HSV-tk-mediated by HCV 5′UTR (cap-independent, HCV nucleotides 38-341) was confirmed by Western blotting analysis of the tk protein. The vector was designed such that the authentic HCV Core protein translation start site (AUG at position 342 of the viral RNA) serves as the translation initiation site for the tk gene. The functional activity of tk was determined by administration of GCV to the cell culture medium. […] To confirm that tk expression was mediated by HCV IRES and not from read-through translation of the hygromycin gene, two control plasmids were generated that were identical to the parental, except for deletion of part of the 5′UTR necessary for IRES function. A reporter cell line was generated by electroporation of HeLa cells with pHyg-5′tk and selected with 250 μg/ml hygromycin. Single cell clones of stable HSV-tk expressing cells (HeLa 5′tk cells) were obtained according to standard limited dilution cloning techniques and functionally characterized for GCV-mediated cell killing.

HeLa 5′tk cells = test: GCV-mediated cell killing of HSV-tk expressing HeLa 5′tk cells; assay type: cell-based
Text: The Hela cell line used in these experiments was modified with a bicistronic reporter gene that confers hygromycin B resistance and GCV […]. The bicistronic reporter gene pHyg-5′tk was constructed with the SV40 promoter driving the expression of hygromycin B phosphotransferase and the 5′ untranslated region of HCV (nucleotides (nt) 38-341) upstream of HSV thymidine kinase (HSV-tk, see FIG. 1). The 5′ nontranslated region of hepatitis C virus (HCV) functions as an internal ribosome entry site (IRES) and is essential for translation of HCV proteins. Transcription of the 5′ nontranslated region allows for IRES-mediated translation of HSV-tk, which converts GCV to the monophosphate which is further metabolized to the triphosphate a cytotoxic analog of GTP. […]
Translation of HSV-tk-mediated by HCV 5′UTR (cap-independent, HCV nucleotides 38-341) was confirmed by Western blotting analysis of the tk protein. […] The functional activity of tk was determined by administration of GCV to the cell culture medium. […] To confirm that tk expression was mediated by HCV IRES and not from read-through translation of the hygromycin gene, two control plasmids were generated that were identical to the parental, except for deletion of part of the 5′UTR necessary for IRES function. […]

[2] = system: LTR-Core and HSV-tk transcripts; test: Northern blotting of LTR-Core, HSV-tk and GAPDH transcripts; assay type: cell-based; settings: normalized to GAPDH, relative to control Rz transduced 5′tk cells
Method: To assure that the observed reductions in Core protein were not caused by reduced levels of RNA transcript, Northern blotting analysis was performed on […] extracted from stable Rz expressors after GCV selection. Total RNA (15 μg per lane) extracted from cultures at 80% confluency was separated by formaldehyde/1% agarose gel electrophoresis and transferred to nylon membrane. The RNAs were probed for different parts of the two vector derived transcripts expressed in these cells: probes were directed against the tk part of the bicistronic transcript or against the Core portion of the retroviral vector transcript respectively. −^32P dCTP labelled probes were hybridized to the membrane in Quickhyb solution (Stratagene) at 65° C. After washing in 2×SSC/0.1%SDS and exposure to film, quantitation of signal was achieved by phosphimager analysis and computer-assisted denistometry as for the Western procedure. Levels of LTR-Core (4.8 kb) and HSV-tk (2.8 kb) transcripts were normalized to signals derived from GAPDH and expressed as percentage of the signal obtained from control Rz transduced 5′tk cells.

Chain of Herpes simplex virus thymidine kinase (HSV-tk) (P0DTH5 whole entry): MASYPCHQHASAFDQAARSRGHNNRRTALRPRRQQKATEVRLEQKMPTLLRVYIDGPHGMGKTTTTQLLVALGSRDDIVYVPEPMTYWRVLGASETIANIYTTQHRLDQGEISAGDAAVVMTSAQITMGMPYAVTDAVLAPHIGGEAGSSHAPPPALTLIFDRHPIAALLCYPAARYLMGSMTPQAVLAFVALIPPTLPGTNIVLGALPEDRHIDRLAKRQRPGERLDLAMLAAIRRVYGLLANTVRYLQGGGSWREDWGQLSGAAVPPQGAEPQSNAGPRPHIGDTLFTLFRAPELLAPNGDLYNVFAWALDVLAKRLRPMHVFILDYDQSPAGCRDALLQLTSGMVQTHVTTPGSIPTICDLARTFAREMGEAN

O=c1[nH]c(=O)n([C@@H]2O[C@H](CO)[C@@H](O)[C@@H]2F)cc1I [FIAU, 1-(2″-deoxy-2′-fluoro-1-β-D-arabinofuranosyl-5-ido)uracil]
better substrate for HSV-tk compared to mammalian tk [1]: about 1000 fold

HCV4: hairpin ribozyme, SEQ ID NO:50; binding sequence partially matches gamma subunit of human eIF2 (CTAACTTTAGAAACTAACCAGAGAAACACACGTTGTGGTACATTACCTGGTA; chemistry not given here)
core protein expression, reduced to % of control RzBR1 transduced cells (HCV Core protein): 42% | reduction of HCV IRES-dependent translatability (ratio Core protein/RNA transcript) (HCV IRES): 76%

HCV6: hairpin ribozyme, SEQ ID NO:52; targets human eIF2Bγ mRNA (TTCTTATTAGAAAGCTACCAGAGAAACACACGTTGTGGTACATTACCTGGTA; chemistry not given here)
core protein expression, reduced to % of control RzBR1 transduced cells (HCV Core protein): 52% | reduction of HCV IRES-dependent translatability (ratio Core protein/RNA transcript) (HCV IRES): 83%

Nc1nc(O)c2ncn(COC(CO)CO)c2n1 [GCV, [9-(1,3-dihydroxy-2-propoxy)methly] guanine]
better substrate for HSV-tk compared to mammalian tk [1]: about 1000 fold | effect of GCV application on tk-negative cells (untransfected HeLa cells): remained unaffected | cell death on continuous GCV application (HeLa 5′tk cells; continuous GCV 10-100 uM, HSV-tk expressing HeLa cells): complete cell death | GCV killing of selected HeLa 5′tk clone (HeLa 5′tk cells; exposure to 20 uM GCV): completely killed

HCV8: hairpin ribozyme conferring GCV resistance, SEQ ID NO:54 (AGCCGAGGAGAATCCCACCAGAGAAACACACGTTGTGGTACATTACCTGGTA; chemistry not given here)
decrease (reduction) in Core protein compared to control Rz transduced cells (HCV Core protein; GCV resistant colonies, normalized to beta-actin, relative to control RzBR1): 95% | reduction of Core transcript [2]: 20%
